Assays:
KB-V1 cells = assay: MTS cytotoxicity test with KB-V1 cells (very high P-glycoprotein); format: cell-based, human; conditions: for IC50: Homo sapiens, KB-V1 cells, MTS; for recognition by P-glycoprotein: inferred from IC50 on KB-V1 compared to parental KB line; for Ratio VI/KB: IC50 on KB VI cells/IC50 on KB cells
In short: (§1)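 KB (no P-glycoprotein), KB-8-5 (moderate) and KB-V1 (very high) cells seeded at 1000/well, dosed after ~24 hr with nine 2-fold dilutions in quadruplicate, cultured three days at 37 °C. MTS formazan absorbance normalised to a time-0 plate; IC50 is the concentration giving colour yield halfway between maximum and minimum.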

HL-60 cells = assay: MTS cytotoxicity test with HL-60 cells; format: cell-based; conditions: Homo sapiens; HL-60 cells, MTS; read-out: IC50 HL-60
pure tubulin = assay: Tubulin polymerization test with pure tubulin without GTP; format: biochemical, bovine; conditions: no GTP
In short: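 GTP-free polymerization using >99% pure bovine brain tubulin in PEM buffer (pH 6.9); centrifuged supernatant added to compounds. Duplicates at six 3-fold dilutions from 24.3 μM, read at 35°.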

HL-60/ADR cells = assay: MTS cytotoxicity test with HL-60/ADR cells (MRP1); format: cell-based, human; conditions: for IC50: Homo sapiens, HL60/ADR, HL-60/ADR cells, MTS, read-out: IC50 HL-60/ADR; for Ratio: IC50 on HL-60/ADR cells/IC50 on HL-60 cells
In short: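 Cells plated at 1000/well for about 24 h, then exposed for three days at 37 °C to nine 2-fold serial dilutions of compound in quadruplicate. MTS formazan absorbance normalised to a time-0 plate; IC50 is the concentration giving half-maximal relative colour yield. HL-60/ADR overexpresses MRP1.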

KB-8-5 cells = assay: MTS cytotoxicity test with KB-8-5 cells (moderate P-glycoprotein); format: cell-based, human; conditions: for IC50: Homo sapiens, KB-8-5 cells, MTS, read-out: IC50 KB 8.5; for Ratio 8.5/KB: IC50 on KB 8.5 cells/IC50 on KB cells
In short: as §1

tubulin heterodimer = assay: Competitive binding test, [3H]colchicine; design: species or system bovine; conditions: [3H]colchicine 50 nM
Description: Medium is RPMI-1640 with L-glutamine, supplemented with 10% heat-inactivated fetal calf serum, 100 units/ml penicillin, and 100 μg/ml streptomycin (Gibco, Grand Island, N.Y.). Microtubule-associated protein (MAP)-rich tubulin, containing about 70% tubulin and 30% MAPs (#ML113), and highly purified tubulin (>99% pure, #TL238), both from bovine brain, are obtained from Cytoskeleton, Inc., Denver, Colo. PEM buffer (80 mM piperazine-N,N′-bis[2-ethanesulfonic acid], pH 6.9, 1 mM ethylene glycol-bis(β-aminoethyl ether)-N,N,N′,N′-tetraacetic acid, 1 mM magnesium chloride) and guanosine 5′-triphosphate (GTP) are also obtained from Cytoskeleton. [3H]paclitaxel, specific activity 14.7 Ci/mmol, is purchased from Moravek Biochemicals (Brea, Calif.). [^3H]vinblastine, specific activity 9.60 Ci/mmol and MicroSpin G-50 columns are obtained from Amersham Biosciences (Piscataway, N.J.). […] Other reagents are obtained from Sigma (St. Louis, Mo.).
The binding of examples of this invention to highly purified tubulin is studied by competitive inhibition methods. […] To study possible competition at the taxane site, on the other hand, polymerized tubulin (microtubules) is used because paclitaxel binds preferentially to microtubules.
Highly purified tubulin is dissolved in PEM buffer without GTP and used at a final concentration of 1.0 to 1.3 mg/ml (10 to 13 μM). […] These solutions are incubated at 24° for 1 hr and then applied to MicroSpin G-50 columns which are centrifuged for 2 min at 3000 rpm in an Eppendorf 5415C microfuge. An aliquot of each column effluent (containing tubulin and bound radioligand) is mixed with scintillation fluid and counted in a liquid scintillation spectrometer. […] The ability of the competitor to inhibit the binding of the radioligand is expressed as a percentage of control binding in the absence of any competitor.

Row | Structure (SMILES) | [3H]Colchicine binding, percent of control without competitor, Mean (tubulin heterodimer) [%] | IC50 (KB-V1 cells) [nM] | recognition by P-glycoprotein (KB-V1 cells) | IC50 (HL-60 cells) [nM] | absorbance increase, polymerization of pure tubulin (pure tubulin; 2.7 μM) | absorbance increase, polymerization of pure tubulin (pure tubulin; 8.1 μM) | A340 at 0 min (pure tubulin; 24.3 μM) | A340 at 5 min (pure tubulin; 24.3 μM) | A340 at 10 min (pure tubulin; 24.3 μM) | A340 at 15 min (pure tubulin; 24.3 μM) | A340 at 20 min (pure tubulin; 24.3 μM) | absorbance increase, polymerization of pure tubulin (pure tubulin; 24.3 μM, first 5 min) | IC50 (HL-60/ADR cells) [nM] | Ratio (HL-60/ADR cells) | IC50 (KB-8-5 cells) [nM] | Ratio VI/KB (KB-V1 cells) | Ratio VI/KB (KB-V1 cells; listed as paclitaxel) | Ratio 8.5/KB (KB-8-5 cells) | Ratio VI/KB (KB-V1 cells; listed as vincristine)
1 | C[C@H](Nc1c(-c2c(F)cc(OCCCN(C)C)cc2F)c(Br)nc2ncnn12)C(F)(F)F [Example 25, 5-Bromo-6-{4-[3-(dimethylamino)propoxy]-2,6-difluorophenyl}-N-[(1S)-2,2,2-trifluoro-1-methylethyl][1,2,4]triazolo[1,5-a]pyrimidin-7-amine] | 126 | 165 | not recognized at all by P-glycoprotein | 104 | no effect | lower and less rapid increase | 0 | 0.22 | 0.23 | 0.22 | 0.22 | rapid increase in absorbance | 68 | 0.65 | 67 | – | – | – | –
2 | OCCCOc1cc(F)c(-c2c(Cl)nc3ncnn3c2C2CCCCCC2)c(F)c1 [Example 30, 3-[4-(5-Chloro-7-cycloheptyl[1,2,4]triazolo[1,5-a]pyrimidin-6-yl)-3,5-difluorophenoxy]propan-1-ol] | 112 | 97 | not recognized at all by P-glycoprotein | 55 | – | – | 0 | 0.02 | 0.01 | 0.01 | 0.01 | – | 52 | 0.94 | 127 | – | – | – | –
3 | CNCCCOc1cc(F)c(-c2c(Cl)nc3ncnn3c2C2CCCCCC2)c(F)c1.O=C(O)C(F)(F)F [Example 32, 3-[4-(5-Chloro-7-cycloheptyl[1,2,4]triazolo[1,5-a]pyrimidin-6-yl)-3,5-difluorophenoxy]-N-methylpropan-1-amine trifluoroacetic acid salt] | 94 | 108 | show recognition by P-glycoprotein | 7.1 | no effect | lower and less rapid increase | 0 | 0.26 | 0.26 | 0.25 | 0.25 | rapid increase in absorbance | 6.6 | 0.92 | 15 | 9.9 | – | – | –

Now from value to molecule, other results behind:

Row | [3H]Colchicine binding, percent of control without competitor, Mean (tubulin heterodimer) [%] | Structure (SMILES) | IC50 (KB-V1 cells) [nM] | recognition by P-glycoprotein (KB-V1 cells) | IC50 (HL-60 cells) [nM] | absorbance increase, polymerization of pure tubulin (pure tubulin; 2.7 μM) | absorbance increase, polymerization of pure tubulin (pure tubulin; 8.1 μM) | A340 at 0 min (pure tubulin; 24.3 μM) | A340 at 5 min (pure tubulin; 24.3 μM) | A340 at 10 min (pure tubulin; 24.3 μM) | A340 at 15 min (pure tubulin; 24.3 μM) | A340 at 20 min (pure tubulin; 24.3 μM) | absorbance increase, polymerization of pure tubulin (pure tubulin; 24.3 μM, first 5 min) | IC50 (HL-60/ADR cells) [nM] | Ratio (HL-60/ADR cells) | IC50 (KB-8-5 cells) [nM] | Ratio VI/KB (KB-V1 cells) | Ratio VI/KB (KB-V1 cells; listed as paclitaxel) | Ratio 8.5/KB (KB-8-5 cells) | Ratio VI/KB (KB-V1 cells; listed as vincristine)
4 | 93 | CC(=O)O[C@H]1C(=O)[C@@]2(C)[C@H]([C@H](OC(=O)c3ccccc3)[C@]3(O)C[C@H](OC(=O)[C@H](O)[C@@H](NC(=O)c4ccccc4)c4ccccc4)C(C)=C1C3(C)C)[C@]1(OC(C)=O)CO[C@@H]1C[C@@H]2O [Paclitaxel, reference compound] | > 1000 | – | 5.7 | – | – | 0 | 0 | 0 | 0.01 | 0.01 | – | 6.4 | 1.1 | 56 | >345 | > 345 | 19 | –
5 | 99 | CC[C@]1(O)C[C@H]2CN(CCc3c([nH]c4ccccc34)[C@@](C(=O)OC)(c3cc4c(cc3OC)N(C=O)[C@H]3[C@@](O)(C(=O)OC)[C@H](OC(C)=O)[C@]5(CC)C=CCN6CC[C@]43[C@@H]65)C2)C1 [Vincristine, reference compound] | > 1000 | – | 2.5 | – | – | 0 | 0.01 | 0.01 | 0 | 0 | – | 20 | 8.2 | 72 | >156 | – | 11 | > 156
